Test results taken from ChEMBL document CHEMBL2074132, “Functional characterization of the hepatic sodium-dependent taurocholate transporter stably transfected into an immortalized liver-derived cell line and V79 fibroblasts” (Eur J Cell Biol, 1996).

Tests used:
Format in all cases: functional, cell-based
[1] = biological target: T1, Hepatic sodium/bile acid cotransporter (Rattus norvegicus, UniProt P26435); test: TP_TRANSPORTER: uptake in Ntcp-expressing HPCT-1E3 cells
T1 sequence (P26435 whole entry): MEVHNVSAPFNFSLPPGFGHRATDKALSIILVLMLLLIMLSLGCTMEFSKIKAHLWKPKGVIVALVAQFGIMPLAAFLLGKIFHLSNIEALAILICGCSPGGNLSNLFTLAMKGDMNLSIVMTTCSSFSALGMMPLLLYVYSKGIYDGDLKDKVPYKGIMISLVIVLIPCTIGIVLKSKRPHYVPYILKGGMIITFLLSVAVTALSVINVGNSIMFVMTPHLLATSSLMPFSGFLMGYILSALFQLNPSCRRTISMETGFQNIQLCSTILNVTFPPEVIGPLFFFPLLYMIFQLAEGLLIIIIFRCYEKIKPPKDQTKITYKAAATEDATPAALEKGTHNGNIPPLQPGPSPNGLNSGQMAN

[2] = biological target: T1, Hepatic sodium/bile acid cotransporter; test: TP_TRANSPORTER: inhibition of Taurocholate uptake (Taurocholate: 10 uM, GC: 100 uM) in Ntcp-expressing HPCT-1E3 cells; details: hpct-1e3, 100 µM
[3] = biological target: T1, Hepatic sodium/bile acid cotransporter; test: TP_TRANSPORTER: inhibition of Taurocholate uptake (Taurocholate: 10 uM, Oligomycin: 0.01mg/mL) in Ntcp-expressing HPCT-1E3 cells

SMILES: CCCCNc1cc(C(=O)O)cc(S(N)(=O)=O)c1Oc1ccccc1 [BUMETANIDE]
- Activity [1]: is not a substrate [-]

SMILES: C[C@H](CCC(=O)NCC(=O)O)[C@H]1CC[C@H]2[C@@H]3[C@H](O)C[C@@H]4C[C@H](O)CC[C@]4(C)[C@H]3C[C@H](O)[C@]12C [GLYCOCHOLIC ACID]
- Activity [2]: inhibitor [(at a rough estimate) 60 % of control]
- Activity [1]: is not a substrate [-]

SMILES: CC[C@H]1/C=C/C=C/C[C@@H](C)[C@H](O)[C@@](C)(O)C(=O)[C@@H](C)[C@H](O)[C@@H](C)C(=O)[C@@H](C)[C@H](O)[C@@H](C)/C=C/C(=O)O[C@@H]2[C@H](C)[C@H](CC1)O[C@]1(CC[C@H](C)[C@H](C[C@@H](C)O)O1)[C@H]2C [OLIGOMYCIN]
- Activity [3]: inhibitor [(at a rough estimate) 10 % of control]
